Eleven compounds from patent US11591355B2 (Peloton Therapeutics, Inc., priority 2017, dated 2023) can be followed below.

In general, pIC50 refers to the negative decadic logarithm of the IC50, by convention in mol/L.

pIC50: −log10 of the molar value.

The first assay addresses T1, Human CD73 (Homo sapiens, UniProt P21589).
T1 construct: purchased R&D Systems; host or cells: CHO cells
T1 sequence (P21589 27-549): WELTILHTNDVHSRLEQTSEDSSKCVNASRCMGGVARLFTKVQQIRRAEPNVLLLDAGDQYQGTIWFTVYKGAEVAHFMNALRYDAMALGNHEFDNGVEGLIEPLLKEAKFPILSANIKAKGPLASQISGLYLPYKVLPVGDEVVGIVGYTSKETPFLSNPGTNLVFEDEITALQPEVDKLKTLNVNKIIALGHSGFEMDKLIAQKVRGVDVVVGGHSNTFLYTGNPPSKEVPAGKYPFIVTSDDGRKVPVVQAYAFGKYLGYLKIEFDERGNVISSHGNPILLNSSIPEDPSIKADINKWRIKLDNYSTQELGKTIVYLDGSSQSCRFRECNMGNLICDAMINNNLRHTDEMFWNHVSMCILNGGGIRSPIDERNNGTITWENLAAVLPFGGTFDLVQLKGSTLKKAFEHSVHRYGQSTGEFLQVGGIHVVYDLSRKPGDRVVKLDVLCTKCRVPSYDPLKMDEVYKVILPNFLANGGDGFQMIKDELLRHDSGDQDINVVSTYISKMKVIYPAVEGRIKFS
The assay is described as follows: CD73 Enzyme Assay. It is filed as biochemical.
Details: not given
Take `CCOP(=O)(O)COC[C@H]1O[C@@H](n2cnc3c(NCc4ccccc4)ncnc32)[C@H](O)[C@@H]1O` [Compound 7, [(2R,3S,4R,5R)-5-[6-(benzylamino)purin-9-yl]-3,4-dihydroxy-tetrahydrofuran-2-yl]-methoxymethyl-ethoxy-phosphinic acid]: the pIC50 was below 6.00.

Staying with this assay, now noted: 0.25 nM hCD73, 25 μM AMP, kinetic read at 360 nm; read-out: CD73 Enzyme Assay IC50.
Turning to `Nc1ncnc2c1ncn2[C@@H]1O[C@H](COCP(=O)(O)O)[C@@H](O)[C@H]1O` [Compound 2, [(2R,3S,4R,5R)-5-(6-aminopurin-9-yl)-3,4-dihydroxy-tetrahydrofuran-2-yl]methoxymethyl-phosphonic acid], the pIC50 was below 6.00.

As for `CNc1nc(NCc2ccccc2)c2ncn([C@@H]3O[C@H](COCP(=O)(O)O)[C@@H](O)[C@H]3O)c2n1` [Compound 5, [(2R,3S,4R,5R)-5-[6-(benzylamino)-2-(methylamino)purin-9-yl]-3,4-dihydroxy-tetrahydrofuran-2-yl]methoxymethyl-phosphonic acid], the pIC50 is below 6.00.

In the case of `O=C(O)c1nc(NCc2ccccc2)c2ncn([C@@H]3O[C@H](COCP(=O)(O)O)[C@@H](O)[C@H]3O)c2n1` [Compound 6, 6-(benzylamino)-9-[(2R,3R,4S,5R)-3,4-dihydroxy-5-(phos-phonomethoxy-methyl)tetrahydro-furan-2-yl]purine-2-carboxylic acid], the pIC50 was below 6.00.

In the case of `O=P(O)(O)COC[C@H]1O[C@@H](n2cnc3c(NCc4ccccc4)nc(-c4ccccc4)nc32)[C@H](O)[C@@H]1O` [Compound 8, [(2R,3S,4R,5R)-5-[6-(benzylamino)-2-phenyl-purin-9-yl]-3,4-dihydroxy-tetrahydrofuran-2-yl]methoxymethylphosphonic acid], the pIC50 was 6.00 to 7.00.

For the compound `O=P(O)(O)COC[C@H]1O[C@@H](n2cnc3c(NCc4ccccc4)nc(-c4cn[nH]c4)nc32)[C@H](O)[C@@H]1O` [Compound 10, [(2R,3S,4R,5R)-5-[6-(benzylamino)-2-(1H-pyrazol-4-yl)purin-9-yl]-3,4-dihydroxy-tetrahydrofuran-2-yl]-methoxymethylphos-phonic acid], the negative-log IC50 (pIC50) was 6.00 to 7.00.

For `CNc1ncnc2c1ncn2[C@@H]1O[C@H](COCP(=O)(O)O)[C@@H](O)[C@H]1O` [Compound 11, [(2R,3S,4R,5R)-3,4-dihydroxy-5-[6-(methylamino)purin-9-yl]tetrahydrofuran-2-yl]methoxymethyl-phosphonic acid], the negative logarithm of the IC50 (pIC50) was below 6.00.

With `O=P(O)(O)COC[C@H]1O[C@@H](n2cnc3c(NCCO)ncnc32)[C@H](O)[C@@H]1O` [Compound 13, [(2R,3S,4R,5R)-3,4-dihydroxy-5-[6-(2-hydroxyethylamino)-purin-9-yl]tetrahydro-furan-2-yl]methoxy-methylphosphonic acid], the negative-log IC50 (pIC50) is below 6.00.

For `CC(C)Nc1nc(Cl)nc2c1ncn2[C@@H]1O[C@H](COCP(=O)(O)O)[C@H]2OC(C)(C)O[C@H]21` [Compound 14, [(3aR,4R,6R,6aR)-4-[2-chloro-6-(isopropyl-amino)purin-9-yl]-2,2-dimethyl-3a,4,6,6a-tetrahydrofuro[3,4-d] [1,3]dioxol-6-yl]-methoxymethylphos-phonic acid], the pIC50 was below 6.00.

With `CCNc1ncnc2c1ncn2[C@@H]1O[C@H](COCP(=O)(O)O)[C@@H](O)[C@H]1O` [Compound 17, [(2R,3S,4R,5R)-5-[6-(ethylamino)purin-9-yl]-3,4-dihydroxy-tetrahydrofuran-2-yl]-methoxymethylphos-phonic acid], the negative logarithm of the IC50 (pIC50) is below 6.00.

Take `O=P(O)(O)COC[C@H]1O[C@@H](n2cnc3c(NCc4ccccn4)ncnc32)[C@H](O)[C@@H]1O` [Compound 19, [(2R,3S,4R,5R)-3,4-dihydroxy-5-[6-(2-pyridylmethylamino)-purin-9-yl]tetrahydro-furan-2-yl]methoxy-methylphosphonic acid]: the pIC50 is below 6.00.
